Measurements published in article PMC8286840, “Identifying SARS-CoV-2 antiviral compounds by screening for small molecule inhibitors of Nsp3 papain-like protease” (Biochemical Journal, 2021).
Where a name gives a salt, the structure may show the parent alone. Read-outs that look alike come from different tables or passages of the source.

Columns and labels:
[1] = molecular target: T1, SARS-CoV-2 PLpro (nsp3 1564–1878) (Severe acute respiratory syndrome coronavirus 2, UniProt P0DTD1); assay: biochemical; parameters: FRET-quenched peptide (Pro3) cleavage by PLpro, 10 min pre-incubation, slope over 20 min, normalised to no-compound control; settings: high concentration screen, read-out: % of control remaining
[2] = molecular target: T1, SARS-CoV-2 PLpro (nsp3 1564–1878); assay: biochemical; parameters: FRET-quenched peptide (Pro3) cleavage by PLpro, 10 min pre-incubation, slope over 20 min, normalised to no-compound control; settings: low concentration screen, read-out: % of control remaining

CCOc1ccc(-n2c([C@@H](C)N(Cc3cccnc3)C(=O)Cc3ccc(F)c(C(F)(F)F)c3)nc3ncccc3c2=O)cc1 [NBI-74330]
remaining activity at 3.75 µM ([1]; Well no.=8611): 97.8%
remaining activity at 1.25 µM ([2]; Well no.=8611): 108%

NS(=O)(=O)c1cccc2c1c([N+](=O)[O-])cc1nc(O)c(O)nc12 [NBQX disodium]
remaining activity at 3.75 µM ([1]; Well no.=942): 98%
remaining activity at 1.25 µM ([2]; Well no.=942): 101%

O=C(O)/C=C/C(O)c1ccc(Cl)cc1 (stereo not drawn) [NCS-356]
remaining activity at 3.75 µM ([1]; Well no.=807): 101%
remaining activity at 1.25 µM ([2]; Well no.=807): 102%

O=C(O)/C=C1\CCCc2ccccc2C1O (stereo not drawn) [NCS-382]
remaining activity at 3.75 µM ([1]; Well no.=903): 99.9%
remaining activity at 1.25 µM ([2]; Well no.=903): 101%

CC(C)CCn1c(CN2CCN(C(=O)C3CC3)CC2)nc2c1c(=O)n(C)c(=O)n2C [NCT-501]
remaining activity at 3.75 µM ([1]; Well no.=8532): 98.9%
remaining activity at 1.25 µM ([2]; Well no.=8532): 105%

Cc1cc(C)nc(NC(=S)N2CCN(Cc3ccc(C(F)(F)F)cc3)CC2)c1 [NCT-503]
remaining activity at 3.75 µM ([1]; Well no.=8538): 93.8%
remaining activity at 1.25 µM ([2]; Well no.=8538): 96.7%

CC(=O)Oc1ccccc1C(=O)Oc1ccc(CO[N+](=O)[O-])cc1 [NCX 4040]
remaining activity at 3.75 µM ([1]; Well no.=6087): 99.2%
remaining activity at 1.25 µM ([2]; Well no.=6087): 99.1%

O=C(Nc1cc(C(=O)Nc2ccc(S(=O)(=O)O)cc2S(=O)(=O)O)cc(C(=O)Nc2ccc(S(=O)(=O)O)cc2S(=O)(=O)O)c1)Nc1cc(C(=O)Nc2ccc(S(=O)(=O)O)cc2S(=O)(=O)O)cc(C(=O)Nc2ccc(S(=O)(=O)O)cc2S(=O)(=O)O)c1 [NF449 octasodium salt]
remaining activity at 3.75 µM ([1]; Well no.=1095): 98.3%
remaining activity at 1.25 µM ([2]; Well no.=1095): 97.6%

O=C(Nc1cccc(C(=O)Nc2ccc(S(=O)(=O)O)c3cc(S(=O)(=O)O)cc(S(=O)(=O)O)c23)c1)Nc1cccc(C(=O)Nc2ccc(S(=O)(=O)O)c3cc(S(=O)(=O)O)cc(S(=O)(=O)O)c23)c1 [NF 023]
remaining activity at 3.75 µM ([1]; Well no.=813): 89.2%
remaining activity at 1.25 µM ([2]; Well no.=813): 88.1%

Nc1ccc2ncnc(NCCc3ccc(Oc4ccccc4)cc3)c2c1 [NF-kB Activation Inhibitor]
remaining activity at 3.75 µM ([1]; Well no.=2566): 98.5%
remaining activity at 1.25 µM ([2]; Well no.=2566): 97.6%

NC(=NCCC[C@H](N)C(=O)O)NO [NG-Hydroxy-L-arginine acetate]
remaining activity at 3.75 µM ([1]; Well no.=660): 96.5%
remaining activity at 1.25 µM ([2]; Well no.=660): 96.5%

CNC(=N)NCCC[C@H](N)C(=O)O [NG-Monomethyl-L-arginine acetate]
remaining activity at 3.75 µM ([1]; Well no.=886): 103%
remaining activity at 1.25 µM ([2]; Well no.=886): 102%

COC(=O)[C@@H](N)CCCNC(=N)N[N+](=O)[O-] [NG-Nitro-L-arginine methyl ester hydrochloride]
remaining activity at 3.75 µM ([1]; Well no.=1001): 98.3%
remaining activity at 1.25 µM ([2]; Well no.=1001): 99.6%

N=C(NCCC[C@H](N)C(=O)O)N[N+](=O)[O-] [NG-Nitro-L-arginine]
remaining activity at 3.75 µM ([1]; Well no.=857): 101%
remaining activity at 1.25 µM ([2]; Well no.=857): 99.8%

O=C(NCCCCN1CCN(c2cccc(Cl)c2Cl)CC1)c1ccc2c(c1)Cc1ccccc1-2 [NGB 2904 hydrochloride]
remaining activity at 3.75 µM ([1]; Well no.=5407): 101%
remaining activity at 1.25 µM ([2]; Well no.=5407): 97.8%

Cc1cnc(NC(=O)c2cc(S(=O)(=O)N(C)C)ccc2N2CCCC2)s1 [NGI-1]
remaining activity at 3.75 µM ([1]; Well no.=7684): 103%
remaining activity at 1.25 µM ([2]; Well no.=7684): 103%

CCCCCCCCCCCCCCCCn1cc[n+](Cc2ccccc2)c1C [NH 125 - 1-Hexadecyl-2-methyl-3-(phenylmethyl)-1H-imidazolium iodide]
remaining activity at 3.75 µM ([1]; Well no.=2336): 97%
remaining activity at 1.25 µM ([2]; Well no.=2336): 97.5%

O=C(N[C@H]1CCN(C(=O)c2cc(C(F)(F)F)cc(C(F)(F)F)c2)[C@H](Cc2ccc(Cl)cc2)C1)c1ccnc2ccccc12 [NKP608]
remaining activity at 3.75 µM ([1]; Well no.=8427): 92.6%
remaining activity at 1.25 µM ([2]; Well no.=8427): 93.4%

C[C@@]1(O)[C@H](O)[C@@H](CO)O[C@H]1n1ccc(N)nc1=O [NM107]
remaining activity at 3.75 µM ([1]; Well no.=8897): 100%
remaining activity at 1.25 µM ([2]; Well no.=8897): 99.5%

CN1CCC(NC(=O)c2cc(-c3c(O)cc(O)cc3Oc3ccc([N+](=O)[O-])cc3)on2)CC1 [NMS-E973]
remaining activity at 3.75 µM ([1]; Well no.=8620): 89.2%
remaining activity at 1.25 µM ([2]; Well no.=8620): 94.8%

CC1(NC2=NS(=O)(=O)c3sc(Cl)cc3N2)CC1 [NN414]
remaining activity at 3.75 µM ([1]; Well no.=5436): 104%
remaining activity at 1.25 µM ([2]; Well no.=5436): 103%

O=C(O)C1=CCCN(CCON=C(c2ccccc2)c2ccccc2)C1 [NO-711 hydrochloride]
remaining activity at 3.75 µM ([1]; Well no.=1149): 88.4%
remaining activity at 1.25 µM ([2]; Well no.=1149): 92.4%

CCCCCCCCCCCCC(=O)N1CCCCC1CNC(=O)[C@@H](N)CCCCN (stereo partly drawn) [NPC-15437 dihydrochloride]
remaining activity at 3.75 µM ([1]; Well no.=1132): 95.6%
remaining activity at 1.25 µM ([2]; Well no.=1132): 94%

CC(C)(Cc1ccc2ccccc2c1)NC[C@@H](O)COc1cccc(Cl)c1C#N [NPS-2143 (hydrochloride)]
remaining activity at 3.75 µM ([1]; Well no.=7051): 105%
remaining activity at 1.25 µM ([2]; Well no.=7051): 107%

CC(C)(Cc1ccc2ccccc2c1)NC[C@@H](O)COc1cccc(Cl)c1C#N [NPS-2143]
remaining activity at 3.75 µM ([1]; Well no.=7036): 93.8%
remaining activity at 1.25 µM ([2]; Well no.=7036): 96.4%

CC(=O)c1ccc(NC2=C(Cl)C(=O)c3ccccc3C2=O)cc1 [NQ301]
remaining activity at 3.75 µM ([1]; Well no.=5652): 82.1%
remaining activity at 1.25 µM ([2]; Well no.=5652): 93.7%

CCOC(=O)c1c2c3c(cccc3[nH]c1=O)C(=O)c1ccccc1-2 [NQDI-1]
remaining activity at 3.75 µM ([1]; Well no.=5480): 96.7%
remaining activity at 1.25 µM ([2]; Well no.=5480): 90.1%

CCCCN1CCC(n2c(=O)[nH]c3ccccc32)CC1 [NS 521 oxalate]
remaining activity at 3.75 µM ([1]; Well no.=1003): 105%
remaining activity at 1.25 µM ([2]; Well no.=1003): 99.3%

O=c1onc2n1-c1cc(Br)ccc1OC2 [NS 2028]
remaining activity at 3.75 µM ([1]; Well no.=990): 99.6%
remaining activity at 1.25 µM ([2]; Well no.=990): 99.8%

CC(C)N(CCCCOCC(=O)NS(C)(=O)=O)c1cnc(-c2ccccc2)c(-c2ccccc2)n1 [NS-304]
remaining activity at 3.75 µM ([1]; Well no.=6795): 94.6%
remaining activity at 1.25 µM ([2]; Well no.=6795): 97.6%

O=c1[nH]c2cc(C(F)(F)F)ccc2n1-c1cc(C(F)(F)F)ccc1O [NS-1619]
remaining activity at 3.75 µM ([1]; Well no.=846): 102%
remaining activity at 1.25 µM ([2]; Well no.=846): 104%

CN1CCN(C(=O)/C=C/c2ccc([N+](=O)[O-])o2)CC1 [NSC59984]
remaining activity at 3.75 µM ([1]; Well no.=6644): 106%
remaining activity at 1.25 µM ([2]; Well no.=6644): 105%

C/C(=N\NC(=S)N1CCC1)c1ccccn1 [NSC319726]
remaining activity at 3.75 µM ([1]; Well no.=6736): 102%
remaining activity at 1.25 µM ([2]; Well no.=6736): 102%

Cc1ccc2nc(CN(CCN(Cc3nc4ccc(C)cc4[nH]3)Cc3nc4ccc(C)cc4[nH]3)Cc3nc4ccc(C)cc4[nH]3)[nH]c2c1 [NSC348884]
remaining activity at 3.75 µM ([1]; Well no.=6442): 98.1%
remaining activity at 1.25 µM ([2]; Well no.=6442): 105%

CC(C)(N)C(=O)O [NSC 16590]
remaining activity at 3.75 µM ([1]; Well no.=7781): 108%
remaining activity at 1.25 µM ([2]; Well no.=7781): 103%

CCN(CC)CCCC(C)Nc1nc(C)cc(Nc2ccc3nc(C)cc(N)c3c2)n1 (stereo not drawn) [NSC 23766]
remaining activity at 3.75 µM ([1]; Well no.=4798): 101%
remaining activity at 1.25 µM ([2]; Well no.=4798): 103%
